ChEMBL document CHEMBL5696442, “Discovery of type II inhibitors of TGFβ-activated kinase 1 (TAK1) and mitogen-activated protein kinase kinase kinase kinase 2 (MAP4K2)” (J Med Chem, 2015)
Calls of active or inactive are those of the source. No cut-off for these calls is given here.

How the values were obtained:
[1] = target: T1, Serine/threonine-protein kinase TAO1 (Homo sapiens) (UniProt Q7L7X3); assay: Inhibition of TAO1 Lys2 labeling site in human Huh-7 cell lysate at 1 uM by KiNativ Profiling analysis relative to control; type: subcellular
T1 sequence (whole entry): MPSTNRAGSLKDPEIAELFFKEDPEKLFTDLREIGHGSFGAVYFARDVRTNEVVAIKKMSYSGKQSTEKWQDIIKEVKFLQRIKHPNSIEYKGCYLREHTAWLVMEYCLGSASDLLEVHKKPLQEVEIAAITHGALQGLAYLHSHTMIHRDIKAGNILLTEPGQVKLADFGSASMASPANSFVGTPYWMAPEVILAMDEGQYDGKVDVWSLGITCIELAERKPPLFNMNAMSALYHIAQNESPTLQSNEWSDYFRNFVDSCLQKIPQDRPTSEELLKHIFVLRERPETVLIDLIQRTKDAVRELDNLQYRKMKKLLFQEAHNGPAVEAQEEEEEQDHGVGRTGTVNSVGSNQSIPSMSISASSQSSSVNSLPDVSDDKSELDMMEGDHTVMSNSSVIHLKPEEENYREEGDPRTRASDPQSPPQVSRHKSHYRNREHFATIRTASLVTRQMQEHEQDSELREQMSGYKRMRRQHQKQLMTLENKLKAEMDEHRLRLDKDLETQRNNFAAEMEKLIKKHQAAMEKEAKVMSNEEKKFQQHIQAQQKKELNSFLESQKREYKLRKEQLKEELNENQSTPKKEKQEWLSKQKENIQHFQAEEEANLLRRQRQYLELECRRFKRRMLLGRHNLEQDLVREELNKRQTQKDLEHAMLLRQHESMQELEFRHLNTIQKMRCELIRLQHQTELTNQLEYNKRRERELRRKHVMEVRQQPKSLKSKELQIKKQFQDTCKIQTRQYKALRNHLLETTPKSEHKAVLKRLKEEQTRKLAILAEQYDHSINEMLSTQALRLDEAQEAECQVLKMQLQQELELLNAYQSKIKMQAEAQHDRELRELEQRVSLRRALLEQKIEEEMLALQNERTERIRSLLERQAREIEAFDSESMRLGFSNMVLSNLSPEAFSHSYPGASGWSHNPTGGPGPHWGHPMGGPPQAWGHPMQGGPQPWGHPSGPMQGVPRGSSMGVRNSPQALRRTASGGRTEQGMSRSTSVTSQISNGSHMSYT

[2] = target: Ribosomal protein S6 kinase alpha-2 (Homo sapiens) (UniProt Q15349); assay: Inhibition of N-terminal RPS6KA2 kinase domain 1 (unknown origin) at 10 uM by Ambit Kinomescan binding assay
[3] = target: Ribosomal protein S6 kinase delta-1 (Homo sapiens) (UniProt Q96S38); assay: Inhibition of RPS6KC1 domain 1 ATP labeling site in human Huh-7 cells at 10 uM by KiNativ Profiling analysis relative to control; type: cell-based
[4] = target: Ribosomal protein S6 kinase alpha-3 (Homo sapiens) (UniProt P51812); assay: Inhibition of RSK2 Domain 1 ACT labeling site harbouring LTDFGLSKESIDHEK in human Huh-7 cells at 10 uM by KiNativ Profiling analysis relative to control; type: cell-based
[5] = target: T2, Serine/threonine-protein kinase ULK1 (Homo sapiens) (UniProt O75385); assay: Inhibition of ULK1 (unknown origin) at 1 uM by Ambit Kinomescan binding assay relative to control
T2 sequence (whole entry): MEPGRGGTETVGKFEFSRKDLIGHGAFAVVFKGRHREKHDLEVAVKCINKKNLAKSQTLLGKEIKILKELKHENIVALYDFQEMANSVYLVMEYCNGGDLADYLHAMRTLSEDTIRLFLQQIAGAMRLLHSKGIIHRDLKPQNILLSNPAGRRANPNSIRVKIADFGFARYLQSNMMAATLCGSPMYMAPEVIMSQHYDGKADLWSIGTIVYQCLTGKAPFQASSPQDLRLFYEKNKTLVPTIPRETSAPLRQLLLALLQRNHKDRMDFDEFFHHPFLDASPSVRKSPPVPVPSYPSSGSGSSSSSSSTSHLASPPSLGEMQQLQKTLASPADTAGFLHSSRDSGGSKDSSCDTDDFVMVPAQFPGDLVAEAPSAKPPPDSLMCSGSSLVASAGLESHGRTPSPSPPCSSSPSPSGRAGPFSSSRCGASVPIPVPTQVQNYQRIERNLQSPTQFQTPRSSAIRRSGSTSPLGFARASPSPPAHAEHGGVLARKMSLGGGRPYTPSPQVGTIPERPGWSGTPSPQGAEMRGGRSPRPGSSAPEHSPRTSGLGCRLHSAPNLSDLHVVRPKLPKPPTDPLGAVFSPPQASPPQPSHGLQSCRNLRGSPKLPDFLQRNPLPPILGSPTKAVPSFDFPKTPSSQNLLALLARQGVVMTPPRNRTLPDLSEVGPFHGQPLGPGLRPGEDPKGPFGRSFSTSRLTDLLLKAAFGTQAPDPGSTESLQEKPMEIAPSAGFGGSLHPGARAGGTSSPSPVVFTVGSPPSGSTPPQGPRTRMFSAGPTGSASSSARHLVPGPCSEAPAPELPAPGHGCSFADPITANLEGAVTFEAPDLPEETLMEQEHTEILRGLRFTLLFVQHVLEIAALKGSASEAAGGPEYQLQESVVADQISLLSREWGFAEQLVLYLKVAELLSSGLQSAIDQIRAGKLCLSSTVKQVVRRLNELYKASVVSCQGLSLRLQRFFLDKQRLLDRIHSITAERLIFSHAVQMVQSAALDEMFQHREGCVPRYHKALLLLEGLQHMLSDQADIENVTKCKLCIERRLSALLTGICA

Sequence of Ribosomal protein S6 kinase alpha-3 (Homo sapiens) (P51812 whole entry, the tested form may be a part): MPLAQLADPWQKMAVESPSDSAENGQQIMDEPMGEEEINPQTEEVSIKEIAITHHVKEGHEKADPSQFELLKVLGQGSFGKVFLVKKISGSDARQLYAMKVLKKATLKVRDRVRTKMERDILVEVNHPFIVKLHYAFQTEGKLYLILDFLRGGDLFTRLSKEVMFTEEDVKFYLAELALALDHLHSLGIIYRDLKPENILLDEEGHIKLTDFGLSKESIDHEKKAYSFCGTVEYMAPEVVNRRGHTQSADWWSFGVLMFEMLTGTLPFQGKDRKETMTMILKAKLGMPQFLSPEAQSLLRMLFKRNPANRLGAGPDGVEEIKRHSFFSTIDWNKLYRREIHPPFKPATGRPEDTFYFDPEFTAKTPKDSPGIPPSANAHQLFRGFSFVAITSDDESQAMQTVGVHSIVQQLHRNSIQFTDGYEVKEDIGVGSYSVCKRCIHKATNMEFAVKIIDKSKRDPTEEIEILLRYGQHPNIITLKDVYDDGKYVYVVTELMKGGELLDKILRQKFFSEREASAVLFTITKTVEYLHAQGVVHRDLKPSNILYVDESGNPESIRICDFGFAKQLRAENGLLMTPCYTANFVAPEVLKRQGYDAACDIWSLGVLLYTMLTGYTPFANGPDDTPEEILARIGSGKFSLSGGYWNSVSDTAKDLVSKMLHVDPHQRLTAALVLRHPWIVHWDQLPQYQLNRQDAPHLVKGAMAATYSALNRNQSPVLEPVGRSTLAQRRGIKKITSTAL
Sequence of Ribosomal protein S6 kinase delta-1 (Homo sapiens) (Q96S38 whole entry, the tested form may be a part): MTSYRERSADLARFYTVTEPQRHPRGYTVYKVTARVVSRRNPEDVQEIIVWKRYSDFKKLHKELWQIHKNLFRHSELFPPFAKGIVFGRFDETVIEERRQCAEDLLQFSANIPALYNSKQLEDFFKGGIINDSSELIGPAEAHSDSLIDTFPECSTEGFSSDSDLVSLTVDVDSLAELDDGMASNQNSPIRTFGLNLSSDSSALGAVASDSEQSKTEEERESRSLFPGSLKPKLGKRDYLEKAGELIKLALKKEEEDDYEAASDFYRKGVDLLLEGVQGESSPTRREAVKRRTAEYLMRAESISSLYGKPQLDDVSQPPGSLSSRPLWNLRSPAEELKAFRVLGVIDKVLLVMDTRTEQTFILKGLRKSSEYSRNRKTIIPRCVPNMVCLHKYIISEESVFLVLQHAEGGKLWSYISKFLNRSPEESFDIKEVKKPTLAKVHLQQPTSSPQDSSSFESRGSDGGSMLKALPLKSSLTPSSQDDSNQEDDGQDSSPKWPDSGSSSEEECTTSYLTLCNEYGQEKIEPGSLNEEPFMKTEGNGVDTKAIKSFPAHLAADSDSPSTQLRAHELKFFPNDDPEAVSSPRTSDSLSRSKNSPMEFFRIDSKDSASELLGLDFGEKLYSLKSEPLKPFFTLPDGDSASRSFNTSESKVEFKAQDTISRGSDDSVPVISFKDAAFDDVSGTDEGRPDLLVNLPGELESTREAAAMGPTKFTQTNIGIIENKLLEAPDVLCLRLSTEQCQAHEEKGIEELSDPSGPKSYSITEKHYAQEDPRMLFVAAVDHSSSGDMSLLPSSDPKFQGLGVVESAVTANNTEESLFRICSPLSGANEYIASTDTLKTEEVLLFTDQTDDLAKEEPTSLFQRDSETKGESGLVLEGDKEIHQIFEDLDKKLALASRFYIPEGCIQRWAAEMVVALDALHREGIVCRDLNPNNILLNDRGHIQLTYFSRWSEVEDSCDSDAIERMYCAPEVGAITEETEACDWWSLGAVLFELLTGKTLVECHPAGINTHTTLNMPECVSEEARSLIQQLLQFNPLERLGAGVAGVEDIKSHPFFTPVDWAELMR
Sequence of Ribosomal protein S6 kinase alpha-2 (Homo sapiens) (Q15349 whole entry, the tested form may be a part): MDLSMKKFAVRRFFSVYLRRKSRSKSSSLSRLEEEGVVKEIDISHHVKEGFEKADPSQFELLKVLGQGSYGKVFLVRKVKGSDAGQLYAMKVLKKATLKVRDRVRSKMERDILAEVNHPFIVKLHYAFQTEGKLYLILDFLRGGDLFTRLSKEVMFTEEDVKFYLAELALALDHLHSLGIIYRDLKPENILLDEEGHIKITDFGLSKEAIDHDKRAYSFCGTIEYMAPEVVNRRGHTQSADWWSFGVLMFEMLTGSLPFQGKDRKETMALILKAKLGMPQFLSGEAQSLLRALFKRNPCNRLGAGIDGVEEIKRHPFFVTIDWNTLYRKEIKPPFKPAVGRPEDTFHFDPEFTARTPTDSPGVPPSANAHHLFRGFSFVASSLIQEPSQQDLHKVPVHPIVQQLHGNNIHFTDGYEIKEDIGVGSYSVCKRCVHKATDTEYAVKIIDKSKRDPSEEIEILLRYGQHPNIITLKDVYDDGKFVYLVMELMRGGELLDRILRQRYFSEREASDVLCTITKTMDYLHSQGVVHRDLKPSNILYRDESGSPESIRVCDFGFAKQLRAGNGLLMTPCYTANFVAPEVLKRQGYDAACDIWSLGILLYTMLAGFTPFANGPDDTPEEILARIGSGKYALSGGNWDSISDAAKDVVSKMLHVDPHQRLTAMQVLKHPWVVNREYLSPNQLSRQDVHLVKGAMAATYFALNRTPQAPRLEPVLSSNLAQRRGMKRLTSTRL

CNc1cc(Oc2cc(C(=O)Nc3cc(N4CCN(C)CC4)cc(C(F)(F)F)c3)ccc2C)ncn1
inhibition [1]: -1.2%

CCN1CCN(Cc2ccc(NC(=O)c3ccc(C)c(Oc4ccnc5[nH]ccc45)c3)cc2C(F)(F)F)CC1
inhibition [2]: inactive | inhibition [3]: 15.4% | inhibition [4]: -1.5%

CCN1CCN(Cc2ccc(NC(=O)c3ccc(C)c(/C=C/c4cnc5[nH]ccc5c4OC)c3)cc2C(F)(F)F)CC1
inhibition [5]: 68%
